In patent US12629374B2, “Antimalarial agents” (Merck Sharp & Dohme LLC, priority 2020, dated 2026):
Counter-ions that a name gives are not always drawn. Like-named read-outs stand apart in the source and are kept apart here.

Tested on: ring stage parasites
Assay: Parasite growth potency assay, 72 hours, LDH readout
Type: cell-based
Conditions: parasite growth measured by LDH assay after 72 hours at 37° C., 0.7% rings, 2% haematocrit, read-out: EC50
Experimental: The parasite stock was maintained at 4% haematocrit in RPMI-Hepes media buffered with sodium bicarbonate and supplemented with 5% heat inactivated human serum and 0.5% albumax.
On the day of assay set up, a blood smear of the parasite culture was Giemsa stained and counted. The parasitemia was adjusted to 0.7% rings and the haematocrit was diluted to 2% in RPMI-Hepes media buffered with sodium bicarbonate and supplemented with 5% heat inactivated human serum and 0.5% albumax. 30 ul of diluted parasites are then added into 10 ul of media+compound in pre-prepared Greiner TC assay plates. Parasite assay plates were placed in gassed humidified boxes in single layer and allowed to incubate at 37° C. for 72 hours. After 72 hours growth, assay plates are sealed with parafilm and frozen flat, in single file at −80° C. overnight. On the following day, assay plates are allowed to thaw at room temperature for 4 hours to which an LDH assay is performed to measure parasite growth.

Compound	EC50 (72 h) [nM]	also measured
C[C@H](c1cccc(C(=O)N[C@H]2CCOc3ccccc32)c1)N1C(=N)N[C@@](CC2CC2)(c2ccccc2)CC1=O [Example 7, [(4R)-1-[1-[3-[[(4S)-chroman-4-yl]carbamoyl]phenyl]ethyl]-4-(cyclopropylmethyl)-6-oxo-4-phenyl-hexahydropyrimidin-2-ylidene]ammonium; 2,2,2-trifluoroacetate]	39.2	
CC[C@]1(C)CC(=O)N([C@H](CCOC)c2cccc(C(=O)NC3c4ccccc4OC(C)(C)C3(C)O)c2)C(=N)N1 (single isomer, unassigned) [Example 234B]		EC50: 74.8 nM
CC[C@H](c1cccc(C(=O)N[C@@H]2c3ccccc3OC(C)(C)[C@H]2O)c1)N1C(=N)NC(CC)(CC)CC1=O [Example 207A, [4,4-diethyl-1-[1-[3-[[(3S,4R)-3-hydroxy-2,2-dimethyl-chroman-4-yl]carbamoyl]phenyl]propyl]-6-oxo-hexahydropyrimidin-2-ylidene]ammonium; 2,2,2-trifluoroacetate]	0.3	
CCC1(CC)CC(=O)N([C@@H](c2ccc(S(C)(=O)=O)cc2)c2cccc(C(=O)N[C@H]3CC(C)(C)Oc4ccccc43)c2)C(=N)N1 [Example 115B, [1-[[3-[[(4S)-2,2-dimethylchroman-4-yl]carbamoyl]phenyl]-(4-methylsulfonylphenyl)methyl]-4,4-diethyl-6-oxo-hexahydropyrimidin-2-ylidene]ammonium; 2,2,2-trifluoroacetate]	4.4	
CC[C@]1(c2ccccc2)CC(=O)N(Cc2cc(F)cc(C(=O)N[C@H]3CCOc4ccccc43)c2)C(=N)N1 [Example 52, [(4R)-1-[[3-[[(4S)-chroman-4-yl]carbamoyl]-5-fluoro-phenyl]methyl]-4-ethyl-6-oxo-4-phenyl-hexahydropyrimidin-2-ylidene]ammonium; 2,2,2-trifluoroacetate]	20.1	
CC#CCC[C@H](c1cccc(C(=O)N[C@H]2CC(C)(C)Oc3ccccc32)c1)N1C(=N)NC(CC)(CC)CC1=O (stereo in doubt) [Example 83B, [1-[1-[3-[(2,2-dimethylchroman-4-yl)carbamoyl]phenyl]hex-4-ynyl]-4,4-diethyl-6-oxo-hexahydropyrimidin-2-ylidene]ammonium; 2,2,2-trifluoroacetate]	0.4	
CCC1(CC)CC(=O)N([C@H](CCS(C)(=O)=O)c2cccc(C(=O)N[C@@H]3c4ccccc4C[C@@]3(C)O)c2)C(=N)N1 [Example 154A, 3-[1-(4,4-diethyl-2-imino-6-oxo-hexahydropyrimidin-1-yl)-3-methylsulfonyl-propyl]-N-[(1R,2R)-2-hydroxy-2-methyl-indan-1-yl]benzamide]	54	
CC[C@]1(C(C)C)CC(=O)N(Cc2cc(F)cc(C(=O)N[C@H]3CCOc4ccccc43)c2)C(=N)N1 [Example 44, [(4R)-1-[[3-[[(4S)-chroman-4-yl]carbamoyl]-5-fluoro-phenyl]methyl]-4-ethyl-4-isopropyl-6-oxo-hexahydropyrimidin-2-ylidene]ammonium; 2,2,2-trifluoroacetate]	2.6	
CCC1(CC)CC(=O)N(Cc2cccc(C(=O)N[C@H]3CC(C)(C)Oc4cccc(F)c43)c2)C(=N)N1 (stereo in doubt) [Example 94A, [4,4-diethyl-1-[[3-[(5-fluoro-2,2-dimethyl-chroman-4-yl)carbamoyl]phenyl]methyl]-6-oxo-hexahydropyrimidin-2-ylidene]ammonium; 2,2,2-trifluoroacetate]	0.4	
CCC1(CC)CC(=O)N(Cc2cncc(C(=O)N[C@@H]3c4ccccc4C[C@H]3O)c2)C(=N)N1 [Example 39, [4,4-diethyl-1-[[5-[[(1R,2R)-2-hydroxyindan-1-yl]carbamoyl]pyridin-1-ium-3-yl]methyl]-6-oxo-hexahydropyrimidin-2-ylidene]ammonium; 2,2,2-trifluoroacetate]	30.4	
CCC1(CC)CC(=O)N([C@H](CCOC)c2cccc(C(=O)N[C@@H]3c4ccccc4OC3(C)CO)c2)C(=N)N1 (single isomer, unassigned) [Example 180B, trifluoroacetate]		EC50 (trifluoroacetate): 15.3 nM
CCC[C@@H](c1cccc(C(=O)N[C@H]2CCOc3ccccc32)c1)N1C(=N)NC(CC)(CC)CC1=O [Example 13B, [1-[1-[3-[[(4S)-chroman-4-yl]carbamoyl]phenyl]butyl]-4,4-diethyl-6-oxo-hexahydropyrimidin-2-ylidene]ammonium; 2,2,2-trifluoroacetate]	43.8	
CCC1(CC)CC(=O)N(Cc2cccc(C(=O)N[C@@H]3c4cc(F)ccc4C[C@H]3O)c2)C(=N)N1 (stereo in doubt) [Example 199, [4,4-diethyl-1-[[3-[(6-fluoro-2-hydroxy-indan-1-yl)carbamoyl]phenyl]methyl]-6-oxo-hexahydropyrimidin-2-ylidene]ammonium; 2,2,2-trifluoroacetate]	6.2	
CC(C)[C@]1(C)CC(=O)N([C@@H](c2cccnc2)c2cccc(C(=O)N[C@H]3CC(C)(C)Oc4ccccc43)c2)C(=N)N1 [Example 101B, [(4S)-1-[[3-[[(4S)-2,2-dimethylchroman-4-yl]carbamoyl]phenyl]-pyridin-1-ium-3-yl-methyl]-4-isopropyl-4-methyl-6-oxo-hexahydropyrimidin-2-ylidene]ammonium; 2,2,2-trifluoroacetate]	1.5	
CCC1(CC)CC(=O)N(Cc2cccc(C(=O)N[C@H]3CC(c4ccccc4)Oc4ccccc43)c2)C(=N)N1 (stereo in doubt) [Example 218A, [4,4-diethyl-6-oxo-1-[[3-[(2-phenylchroman-4-yl)carbamoyl]phenyl]methyl]hexa-hydropyrimidin-2-ylidene]ammonium; 2,2,2-trifluoroacetate]		EC50 (trifluoroacetate): 55 nM
CCC1(CC)CC(=O)N([C@H](C)c2cccc(C(=O)N[C@@H]3c4ccccc4C[C@H]3O)c2)C(=N)N1 [Example 33, [4,4-diethyl-1-[1-[3-[[(1R,2R)-2-hydroxyindan-1-yl]carbamoyl]phenyl]ethyl]-6-oxo-hexahydropyrimidin-2-ylidene]ammonium; 2,2,2-trifluoroacetate]	2.8	
CCC1(CC)CC(=O)N([C@H](CCOC(F)F)c2cccc(C(=O)N[C@H]3CC(C)(C)Oc4ccccc43)c2)C(=N)N1 [Example 160, [1-[3-(difluoromethoxy)-1-[3-[[(4S)-2,2-dimethylchroman-4-yl]carbamoyl]phenyl]propyl]-4,4-diethyl-6-oxo-hexahydropyrimidin-2-ylidene]ammonium; 2,2,2-trifluoroacetate]	0.5	
CCC1(CC)CC(=O)N([C@@H](c2cccc(C(=O)N[C@H]3CCOc4ccccc43)c2)c2cncs2)C(=N)N1 [Example 85A, N-[(4S)-chroman-4-yl]-3-[(4,4-diethyl-2-imino-6-oxo-hexahydropyrimidin-1-yl)-thiazol-5-yl-methyl]benzamide]	1	
CCC1(CC)CC(=O)N([C@H](CCOC)c2cc(F)cc(C(=O)NC3CCCOc4ccccc43)c2)C(=N)N1 (stereo in doubt) [Example 220, [4,4-diethyl-1-[1-[3-fluoro-5-(2,3,4,5-tetrahydro-1-benzoxepin-5-ylcarbamoyl)phenyl]-3-methoxy-propyl]-6-oxo-hexahydropyrimidin-2-ylidene]ammonium; 2,2,2-trifluoroacetate]	2.4	
COCC[C@H](c1cccc(C(=O)N[C@@H]2c3ccccc3C[C@@]2(C)O)c1)N1C(=N)NC(C)(C)CC1=O [Example 166A, N-[(1R,2R)-2-hydroxy-2-methyl-indan-1-yl]-3-[(1R)-1-(2-imino-4,4-dimethyl-6-oxo-hexahydropyrimidin-1-yl)-3-methoxy-propyl]benzamide]		EC50: 52.1 nM
CCC[C@H](c1cccc(C(=O)N[C@H]2c3ccccc3OC(C)(C)[C@@H]2O)c1)N1C(=N)NC(CC)(CC)CC1=O [Example 119B, [4,4-diethyl-1-[(1R)-1-[3-[(3-hydroxy-2,2-dimethyl-chroman-4-yl)carbamoyl]phenyl]butyl]-6-oxo-hexahydropyrimidin-2-ylidene]ammonium; 2,2,2-trifluoroacetate]	34	
CCC1(CC)CC(=O)N(Cc2cccc(C(=O)N[C@@H]3c4ccccc4OC(C)(C)C3(C)O)c2)C(=N)N1 (stereo in doubt) [Example 184, 3-[(4,4-diethyl-2-imino-6-oxo-hexahydropyrimidin-1-yl)methyl]-N-(3-hydroxy-2,2,3-trimethyl-chroman-4-yl)benzamide]	1.5	
CCC[C@H](c1cccc(C(=O)N[C@@H]2c3ccccc3C[C@H]2O)c1)N1C(=N)N[C@@](CC2CC2)(c2ccccc2)CC1=O [Example 65, [(4R)-4-(cyclopropylmethyl)-1-[(1R)-1-[3-[[(1R,2R)-2-hydroxyindan-1-yl]carbamoyl]phenyl]butyl]-6-oxo-4-phenyl-hexahydropyrimidin-2-ylidene]ammonium; 2,2,2-trifluoroacetate]	43.9	
COCC[C@H](c1cccc(C(=O)N[C@@H]2c3ccccc3CC2(O)C(F)(F)F)c1)N1C(=N)NC(C)(C)CC1=O (stereo partly drawn) [Example 188, [1-[(1R)-1-[3-[[2-hydroxy-2-(trifluoromethyl)indan-1-yl]carbamoyl]phenyl]-3-methoxy-propyl]-4,4-dimethyl-6-oxo-hexahydropyrimidin-2-ylidene]ammonium; 2,2,2-trifluoroacetate]	7.3	
CCC1(CC)CC(=O)N([C@H](CCN2CCOCC2)c2cccc(C(=O)N[C@H]3CCOc4ccccc43)c2)C(=N)N1 [Example 54, [1-[1-[3-[[(4S)-chroman-4-yl]carbamoyl]phenyl]-3-morpholin-4-ium-4-yl-propyl]-4,4-diethyl-6-oxo-hexahydropyrimidin-2-ylidene]ammonium; 2,2,2-trifluoroacetate]	5.6	
